Measurements reported in patent US20250090540A1, “PI3K-ALPHA INHIBITORS AND METHODS OF USE THEREOF” (Relay Therapeutics, Inc., priority 2021, published 2025).
pIC50: −log10 of the molar value.

target: H1047R PIK3CA enzyme (Homo sapiens, UniProt P42336, H1047R); test: ADP-Glo Biochemical PIK3CA Kinase Assay
Description: Compounds to be assayed were plated in 16 doses of 1:2 serial dilutions (20 nL volume each well) on a 1536-well plate, and the plate warmed to room temperature. PIK3CA enzyme (e.g. H1047R, E542K, E545K, or wild-type) (1 μL of 2 nM solution in Enzyme Assay Buffer (comprising 50 mM HEPES pH 7.4, 50 mM NaCl, 6 mM MgCl2, 5 mM DTT and 0.03% CHAPS)) was added and shaken for 10 seconds and preincubated for 30 minutes. To the well was added 1 μL of 200 μM ATP and 20 μM of diC8-PIP2 in Substrate Assay Buffer (50 mM HEPES pH7.4, 50 mM NaCl, 5 mM DTT and 0.03% CHAPS) to start the reaction, and the plate was shaken for 10 seconds, then spun briefly at 1500 rpm, and then incubated for 60 minutes at room temperature. The reaction was stopped by adding 2 μL of ADP-Glo reagent (Promega), and spinning briefly at 1500 rpm, and then incubating for 40 minutes. ADP-Glo Detection reagent (Promega) was added and the plate spun briefly at 1500 rpm, then incubated for 30 minutes.

Sequence of H1047R PIK3CA enzyme (P42336 whole entry H1047R): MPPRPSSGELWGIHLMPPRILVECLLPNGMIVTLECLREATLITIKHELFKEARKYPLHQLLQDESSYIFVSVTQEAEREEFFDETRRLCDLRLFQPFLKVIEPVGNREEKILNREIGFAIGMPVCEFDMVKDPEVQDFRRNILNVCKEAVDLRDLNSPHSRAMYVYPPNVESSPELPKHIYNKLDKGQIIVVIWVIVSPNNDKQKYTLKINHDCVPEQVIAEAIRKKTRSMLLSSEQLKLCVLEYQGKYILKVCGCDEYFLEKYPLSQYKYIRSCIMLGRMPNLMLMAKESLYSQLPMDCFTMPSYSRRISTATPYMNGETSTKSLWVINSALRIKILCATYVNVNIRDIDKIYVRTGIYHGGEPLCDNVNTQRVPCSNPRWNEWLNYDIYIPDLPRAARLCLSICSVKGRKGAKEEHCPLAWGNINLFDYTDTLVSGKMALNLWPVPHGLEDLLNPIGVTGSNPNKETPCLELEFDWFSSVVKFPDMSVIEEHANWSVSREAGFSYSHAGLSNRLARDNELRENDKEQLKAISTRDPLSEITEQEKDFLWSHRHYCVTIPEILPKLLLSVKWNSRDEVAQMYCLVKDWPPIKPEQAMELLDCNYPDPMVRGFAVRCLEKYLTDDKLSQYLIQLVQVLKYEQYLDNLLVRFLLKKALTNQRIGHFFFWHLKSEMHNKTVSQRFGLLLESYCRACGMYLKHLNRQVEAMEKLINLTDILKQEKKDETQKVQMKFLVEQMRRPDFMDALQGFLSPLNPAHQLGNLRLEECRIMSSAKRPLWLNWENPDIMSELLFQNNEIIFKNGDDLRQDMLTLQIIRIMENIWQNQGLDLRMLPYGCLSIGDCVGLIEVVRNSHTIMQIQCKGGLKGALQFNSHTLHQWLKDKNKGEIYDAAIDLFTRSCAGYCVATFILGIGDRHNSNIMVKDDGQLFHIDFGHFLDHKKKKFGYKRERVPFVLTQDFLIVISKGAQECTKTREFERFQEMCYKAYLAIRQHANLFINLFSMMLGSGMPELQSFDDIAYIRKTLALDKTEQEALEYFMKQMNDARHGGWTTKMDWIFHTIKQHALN
Sequence of H1047R PIK3CA enzyme (P27986 whole entry partner): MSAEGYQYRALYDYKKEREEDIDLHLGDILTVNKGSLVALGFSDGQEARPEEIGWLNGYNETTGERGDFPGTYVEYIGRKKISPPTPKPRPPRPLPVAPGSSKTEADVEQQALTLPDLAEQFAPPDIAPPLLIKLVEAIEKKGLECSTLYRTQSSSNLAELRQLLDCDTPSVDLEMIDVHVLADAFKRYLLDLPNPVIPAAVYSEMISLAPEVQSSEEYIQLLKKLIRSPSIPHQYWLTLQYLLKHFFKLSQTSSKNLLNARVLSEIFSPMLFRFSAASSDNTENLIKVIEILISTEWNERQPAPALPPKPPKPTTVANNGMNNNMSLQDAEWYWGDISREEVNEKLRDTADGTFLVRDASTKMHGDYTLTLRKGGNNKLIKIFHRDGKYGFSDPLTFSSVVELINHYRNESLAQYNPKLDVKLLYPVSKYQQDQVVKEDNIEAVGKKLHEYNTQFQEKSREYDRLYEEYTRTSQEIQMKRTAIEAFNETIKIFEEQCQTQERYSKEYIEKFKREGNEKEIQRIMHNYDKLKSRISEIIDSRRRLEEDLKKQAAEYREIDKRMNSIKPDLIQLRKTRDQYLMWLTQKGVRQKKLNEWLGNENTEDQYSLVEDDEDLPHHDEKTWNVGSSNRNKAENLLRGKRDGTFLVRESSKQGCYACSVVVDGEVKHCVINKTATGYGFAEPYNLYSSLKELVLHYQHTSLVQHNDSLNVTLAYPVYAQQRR

Structure (SMILES) | pIC50
Cc1ccccc1Nc1ncc(-c2cnn(C)c2)cc1NC(=O)c1cccc2ccccc12 [I-113] | 4.00 to 5.00
CC(=O)Nc1ccc(C(=O)Nc2cc(-c3cnn(C)c3)cnc2Nc2ccccc2C)cc1 [I-114] | 4.00 to 5.00
Cc1cccc(C(=O)Nc2cc(-c3cnn(C)c3)cnc2Nc2ccccc2C)c1 [I-115] | 4.00 to 5.00
Cc1ccccc1Nc1ncc(-c2cnn(C)c2)cc1NC(=O)c1cccc(C#N)c1 [I-116] | 4.00 to 5.00
Cc1ccccc1Nc1ncc(-c2cnn(C)c2)cc1NC(=O)c1ccc(C(F)(F)F)cc1 [I-117] | 4.00 to 5.00
Cc1ccccc1Nc1ncc(-c2cnn(C)c2)cc1NC(=O)c1cccc(S(C)(=O)=O)c1 [I-118] | 4.00 to 5.00
Cc1ccccc1Nc1ncc(-c2cnn(C)c2)cc1NC(=O)c1cccc2cnccc12 [I-119] | 4.00 to 5.00
Cc1ccccc1Nc1ncc(-c2cnn(C)c2)cc1NC(=O)c1cccc(N(C)C)c1 [I-120] | 4.00 to 5.00
Cc1ccccc1Nc1ncc(-c2cnn(C)c2)cc1NC(=O)c1cccc2cn(C)nc12 [I-121] | 4.00 to 5.00
Cc1ccccc1Nc1ncc(-c2cnn(C)c2)cc1NC(=O)c1ccc(OC(F)(F)F)cc1 [I-122] | 4.00 to 5.00
Cc1ccccc1Nc1ncc(-c2cnn(C)c2)cc1NC(=O)c1ccc(S(C)(=O)=O)cc1 [I-123] | 4.00 to 5.00
COc1cccc(C(=O)Nc2cc(-c3cnn(C)c3)cnc2Nc2ccccc2C)c1 [I-124] | 4.00 to 5.00
Cc1ccccc1Nc1ncc(-c2cnn(C)c2)cc1NC(=O)c1cccc2cccnc12 [I-125] | 4.00 to 5.00
COc1ccc(C(=O)Nc2cc(-c3cnn(C)c3)cnc2Nc2ccccc2C)cc1 [I-126] | 4.00 to 5.00
Cc1ccccc1Nc1ncc(-c2cnn(C)c2)cc1NC(=O)c1ccccc1C [I-127] | 4.00 to 5.00
Cc1ccccc1Nc1ncc(-c2cnn(C)c2)cc1NC(=O)c1ccccc1S(C)(=O)=O [I-128] | 4.00 to 5.00
Cc1ccccc1Nc1ncc(-c2cnn(C)c2)cc1NC(=O)c1ccc(S(N)(=O)=O)cc1 [I-129] | 4.00 to 5.00
Cc1ccccc1Nc1ncc(-c2cnn(C)c2)cc1NC(=O)c1ccccc1O [I-130] | 4.00 to 5.00

Structure (SMILES) | pIC50
Cc1ccccc1Nc1ncc(-c2cnn(C)c2)cc1NC(=O)c1cc2ccccc2s1 [I-131] | 4.00 to 5.00
O=C(Nc1cccnc1NCc1ccccc1)c1csc2ccccc12 [I-133] | 4.00 to 5.00
COCCNc1ncccc1NC(=O)c1csc2ccccc12 [I-134] | 4.00 to 5.00
CNC(=O)c1cnc(Nc2ccccc2C)c(NC(=O)Cc2ccccc2Cl)c1 [I-140] | 4.00 to 5.00
CNC(=O)c1cnc(Nc2ccccc2C)c(NC(=O)c2cccc(F)c2)c1 [I-143] | 4.00 to 5.00
CC(C)(C)OC(=O)N1CCC(Nc2ncccc2NC(=O)c2csc3ccccc23)CC1 [I-151] | 4.00 to 5.00
O=C(Nc1cccnc1NC1CCNCC1)c1csc2ccccc12 [I-152] | 4.00 to 5.00
O=C(Nc1cccnc1NC1CCCCC1)c1csc2ccccc12 [I-153] | 4.00 to 5.00
CNC(=O)c1cnc(Nc2ccccc2C)c(NC(=O)c2ccnc3ccccc23)c1 [I-157] | 4.00 to 5.00
CNC(=O)c1cnc(Nc2ccccc2C)c(NC(=O)c2nn(C)c3ccccc23)c1 [I-158] | 4.00 to 5.00
CNC(=O)c1cnc(Nc2ccccc2C)c(NC(=O)C2(c3ccc(C)cc3)CC2)c1 [I-160] | 4.00 to 5.00
CNC(=O)c1cnc(Nc2ccccc2C)c(NC(=O)Cc2cc(F)cc(F)c2)c1 [I-161] | 4.00 to 5.00
CCC(C(=O)Nc1cc(C(=O)NC)cnc1Nc1ccccc1C)c1ccccc1 (stereo not shown) [I-162] | 4.00 to 5.00
CNC(=O)c1cnc(Nc2ccccc2C)c(NC(=O)C2CCN(C(C)=O)CC2)c1 [I-163] | 4.00 to 5.00
CNC(=O)c1cnc(Nc2ccccc2C)c(NC(=O)Cc2c(F)ccc(F)c2F)c1 [I-164] | 4.00 to 5.00
CNC(=O)c1cnc(Nc2ccccc2C)c(NC(=O)[C@@H]2C[C@H]2c2ccccc2)c1 [I-165] | 4.00 to 5.00
CNC(=O)c1cnc(Nc2ccccc2C)c(NC(=O)C(c2ccccc2)C(C)C)c1 (stereo not shown) [I-166] | 4.00 to 5.00

Results, then the molecule that gave them:

pIC50 | Structure (SMILES)
5.00 to 6.00 | Cc1ccccc1Nc1ncc(CO)cc1NC(=O)c1cc(F)cc(C(F)(F)F)c1 [I-63]
5.00 to 6.00 | CNC(=O)c1cnc(Nc2ccccc2C)c(NC(=O)c2cccc(C(F)(F)F)c2)c1 [I-66]
4.00 to 5.00 | Cc1ccccc1Nc1ncc(C(=O)NS(C)(=O)=O)cc1NC(=O)c1cc(F)cc(C(F)(F)F)c1 [I-69]
5.00 to 6.00 | Cc1ccccc1Nc1ncc(N)cc1NC(=O)c1cc(F)cc(C(F)(F)F)c1 [I-70]
4.00 to 5.00 | CNc1ncc(-c2cnn(C)c2)cc1NC(=O)c1cc(F)cc(C(F)(F)F)c1 [I-71]
5.00 to 6.00 | Cc1ccccc1Nc1ncc(N2CC(N)C2)cc1NC(=O)c1cc(F)cc(C(F)(F)F)c1 [I-73]
5.00 to 6.00 | Cc1ccccc1Nc1ncc(-c2ccn[nH]2)cc1NC(=O)c1cc(F)cc(C(F)(F)F)c1 [I-74]
5.00 to 6.00 | Cc1ccccc1Nc1ncc(-c2ccc(CNC(=O)OC(C)(C)C)cc2)cc1NC(=O)c1cc(F)cc(C(F)(F)F)c1 [I-76]
5.00 to 6.00 | Cc1ccccc1Nc1ncc(-c2cccnc2)cc1NC(=O)c1cc(F)cc(C(F)(F)F)c1 [I-77]
6.00 to 6.30 | Cc1ccccc1Nc1ncc(-c2c(C)noc2C)cc1NC(=O)c1cc(F)cc(C(F)(F)F)c1 [I-78]
5.00 to 6.00 | Cc1ccccc1Nc1ncc(-c2ccc(NC(=O)OC(C)(C)C)cc2)cc1NC(=O)c1cc(F)cc(C(F)(F)F)c1 [I-80]
5.00 to 6.00 | Cc1ccccc1Nc1ncc(-c2cn[nH]c2)cc1NC(=O)c1cc(F)cc(C(F)(F)F)c1 [I-81]
6.00 to 6.30 | Cc1ccccc1Nc1ncc(-c2ccccc2C#N)cc1NC(=O)c1cc(F)cc(C(F)(F)F)c1 [I-83]
4.00 to 5.00 | CNC(=O)c1cnc(Nc2ccccc2C)c(NCc2cc(F)cc(C(F)(F)F)c2)c1 [I-85]
6.00 to 6.30 | Cc1ccccc1Nc1ncc(C(=O)NCCO)cc1NC(=O)c1cc(F)cc(C(F)(F)F)c1 [I-86]
4.00 to 5.00 | CNC(=O)c1cnc(Nc2ccccc2C)c(NC(=O)c2c[nH]c3ccccc23)c1 [I-87]
6.00 to 6.30 | Cc1ccccc1Nc1ncc(-c2cnn(C3CCOCC3)c2)cc1NC(=O)c1cc(F)cc(C(F)(F)F)c1 [I-88]
4.00 to 5.00 | Cc1ccccc1Nc1ncc(-c2cnn(C)c2)cc1NC(=O)c1cccn2nccc12 [I-89]
5.00 to 6.00 | Cc1ccccc1Nc1ncc(-c2cnn(C3CCN(C(=O)OC(C)(C)C)CC3)c2)cc1NC(=O)c1cc(F)cc(C(F)(F)F)c1 [I-90]
6.00 to 6.30 | Cc1ccccc1Nc1ncc(-c2cnn(C3CCNCC3)c2)cc1NC(=O)c1cc(F)cc(C(F)(F)F)c1 [I-91]
4.00 to 5.00 | Cc1ccccc1Nc1ncc(-c2cnn(C)c2)cc1NC(=O)N1CCOc2ccccc21 [I-92]
4.00 to 5.00 | COc1cc(F)cc(C(=O)Nc2cc(-c3cnn(C)c3)cnc2Nc2ccccc2C)c1 [I-94]
5.00 to 6.00 | Cc1cc(F)cc(C(=O)Nc2cc(-c3cnn(C)c3)cnc2Nc2ccccc2C)c1 [I-95]
6.00 to 6.30 | Cc1ccccc1Nc1ncc(-c2cnn(C)c2)cc1NC(=O)c1cc(F)cc(Br)c1 [I-96]

pIC50 | Structure (SMILES)
6.00 to 6.30 | Cc1ccccc1Nc1ncc(-c2cnn(C)c2)cc1NC(=O)c1cc(F)cc(Cl)c1 [I-97]
4.00 to 5.00 | Cc1ccccc1Nc1ncc(-c2cnn(C)c2)cc1NC(=O)c1ccnc2c1ccn2C [I-98]
5.00 to 6.00 | Cc1ccccc1Nc1ncc(-c2cnn(C)c2)cc1NC(=O)c1cccc(Br)c1 [I-99]
4.00 to 5.00 | Cc1ccccc1Nc1ncc(-c2cnn(C)c2)cc1NC(=O)c1cccc2c1cnn2C [I-100]
5.00 to 6.00 | Cc1ccccc1Nc1ncc(-c2cnn(C)c2)cc1NC(=O)c1cc(F)cc(F)c1 [I-101]
5.00 to 6.00 | Cc1ccccc1Nc1ncc(-c2cnn(C)c2)cc1NC(=O)c1ccc(F)c(C(F)(F)F)c1 [I-102]
4.00 to 5.00 | Cc1ccccc1Nc1ncc(-c2cnn(C)c2)cc1NC(=O)c1ccc2cc[nH]c2c1 [I-103]
5.00 to 6.00 | Cc1ccccc1Nc1ncc(-c2cnn(C)c2)cc1NC(=O)c1ccc(Cl)c(Cl)c1 [I-104]
4.00 to 5.00 | Cc1ccccc1Nc1ncc(-c2cnn(C)c2)cc1NC(=O)c1cccc2ccncc12 [I-105]
4.00 to 5.00 | Cc1ccccc1Nc1ncc(-c2cnn(C)c2)cc1NC(=O)c1ccc(C#N)cc1 [I-106]
4.00 to 5.00 | Cc1ccccc1Nc1ncc(-c2cnn(C)c2)cc1NC(=O)c1ccccc1C(F)(F)F [I-107]
4.00 to 5.00 | Cc1ccccc1Nc1ncc(-c2cnn(C)c2)cc1NC(=O)c1ccc2[nH]ncc2c1 [I-108]
4.00 to 5.00 | Cc1ccc(C(=O)Nc2cc(-c3cnn(C)c3)cnc2Nc2ccccc2C)cc1 [I-109]
5.00 to 6.00 | Cc1ccccc1Nc1ncc(-c2cnn(C)c2)cc1NC(=O)c1cccc(C(F)(F)F)c1 [I-110]
4.00 to 5.00 | Cc1ccccc1Nc1ncc(-c2cnn(C)c2)cc1NC(=O)c1ccccc1OC(F)(F)F [I-111]
4.00 to 5.00 | Cc1ccccc1Nc1ncc(-c2cnn(C)c2)cc1NC(=O)c1cccc2nn(C)cc12 [I-112]
5.00 to 6.00 | Cc1ccccc1Nc1ncc(-c2cnn(C)c2)cc1NC(=O)c1cc2ccccc2n1C [I-132]
5.00 to 6.00 | CNC(=O)c1cnc(Nc2ccccc2C)c(NC(=O)c2cc(F)cc(F)c2)c1 [I-141]
5.00 to 6.00 | Cc1ccccc1Nc1ncc(-c2cnn(C)c2)cc1NC(=O)c1csc2ccc(Cl)cc12 [I-145]
6.00 to 6.30 | Cc1ccccc1Nc1ncc(-c2cnn(CCO)c2)cc1NC(=O)c1cc(F)cc(C(F)(F)F)c1 [I-147]
6.00 to 6.30 | COCCn1cc(-c2cnc(Nc3ccccc3C)c(NC(=O)c3cc(F)cc(C(F)(F)F)c3)c2)cn1 [I-148]
5.00 to 6.00 | Cc1ccccc1Nc1ncc(NC(=O)CC#N)cc1NC(=O)c1cc(F)cc(C(F)(F)F)c1 [I-154]
6.00 to 6.30 | Cc1ccccc1Nc1ncc(NCC#N)cc1NC(=O)c1cc(F)cc(C(F)(F)F)c1 [I-155]
